Each molecule was assayed on SARS-CoV-2 replicon. Conditions: read-out: SARS-CoV-2 Replicon (Huh-7cell) EC50.
Assay type: cell-based

| SMILES | EC50 [nM] |
| --- | --- |
| CCC(C)(C)COC(=O)[C@H](C)NP(=O)(OCOC(=O)OC(C)C)OC[C@H]1O[C@@](C#N)(c2ccc3c(N)ncnn23)[C@H](OC(=O)C(C)C)[C@@H]1OC(=O)C(C)C (mixture of isomers) [Compound 14, (2R,3R,4R,5R)-2-(4-aminopyrrolo[2,1-f][1,2,4]triazin-7-yl)-2-cyano-5-((((((S)-1-(2,2-dimethylbutoxy)-1-oxopropan-2-yl)amino)(((isopropoxycarbonyl)oxy)methoxy)phosphoryl)oxy)methyl)tetrahydrofuran-3,4-diyl bis(2-methylpropionate)] | 10 to 50 |
| CC(C)C(=O)O[C@H]1[C@@H](OC(=O)C(C)C)[C@](C#N)(c2ccc3c(N)ncnn23)O[C@@H]1COP(=O)(OCCSC(=O)C(C)(C)C)Oc1ccc(C(C)(C)C)cc1 (mixture of isomers) [Compound 27, (2R,3R,4R,5R)-2-(4-aminopyrrolo[2,1-f][1,2,4]triazin-7-yl)-5-((((4-tert-butylphenoxy)(2-(pivaloylthio)ethoxy)phosphoryl)oxy)methyl)-2-cyanotetrahydrofuran-3,4-diyl bis(2-methylpropionate)] | 10 to 50 |
| CCCCCCCCCCCCCCCCOCCCOP(=O)(OCOC(=O)OC(C)C)OC[C@H]1O[C@@](C#N)(c2ccc3c(N)ncnn23)[C@H](OC(=O)C(C)C)[C@@H]1OC(=O)C(C)C (mixture of isomers) [Compound 36, (2R,3R,4R,5R)-2-(4-aminopyrrolo[2,1-f][1,2,4]triazin-7-yl)-2-cyano-5-((((3-(hexadecyloxy)propoxy)(((isopropoxycarbonyl)oxy)methoxy)phosphoryl)oxy)methyl)tetr ahydrofuran-3,4-diyl bis(2-methylpropionate)] | 50 to 500 |
| CCC(=O)O[C@H]1[C@@H](OC(=O)CC)[C@](C#N)(c2ccc3c(N)ncnn23)O[C@@H]1CO[P@](=O)(N[C@@H](C)C(=O)OC(C)C)OCOC(=O)OC(C)C [Compound 2a, (2R,3R,4R,5R)-2-(4-aminopyrrolo[2,1-f][1,2,4]triazin-7-yl)-2-cyano-5-((((R)-(((S)-1-isopropoxy-1-oxopropan-2-yl)amino)(((isopropoxycarbonyl)oxy)methoxy)phosphoryl)oxy)methyl)tetrahydrofuran-3,4-diyl dipropionate] | 5 to 10 |
| CCC(=O)O[C@H]1[C@@H](OC(=O)CC)[C@](C#N)(c2ccc3c(N)ncnn23)O[C@@H]1CO[P@@](=O)(N[C@@H](C)C(=O)OC(C)C)OCOC(=O)OC(C)C [Compound 2b, (2R,3R,4R,5R)-2-(4-aminopyrrolo[2,1-f][1,2,4]triazin-7-yl)-2-cyano-5-((((S)-(((S)-1-isopropoxy-1-oxopropan-2-yl)amino)(((isopropoxycarbonyl)oxy)methoxy)phosphoryl)oxy)methyl)tetrahydrofuran-3,4-diyl dipropionate] | ≤ 5 |
| CC(C)OC(=O)OCO[P@@](=O)(N[C@@H](C)C(=O)OC(C)C)OC[C@H]1O[C@@](C#N)(c2ccc3c(N)ncnn23)[C@H](OC(=O)C(C)C)[C@@H]1OC(=O)C(C)C [Compound 3a, (2R,3R,4R,5R)-2-(4-aminopyrrolo[2,1-f][1,2,4]triazin-7-yl)-2-cyano-5-((((R)-(((S)-1-isopropoxy-1-oxopropan-2-yl)amino)(((isopropoxycarbonyl)oxy)methoxy)phosphoryl)oxy)methyl)tetrahydrofuran-3,4-diyl bis(2-methylpropionate)] | 10 to 50 |
| CC(C)OC(=O)OCO[P@](=O)(N[C@@H](C)C(=O)OC(C)C)OC[C@H]1O[C@@](C#N)(c2ccc3c(N)ncnn23)[C@H](OC(=O)C(C)C)[C@@H]1OC(=O)C(C)C [Compound 3b, (2R,3R,4R,5R)-2-(4-aminopyrrolo[2,1-f][1,2,4]triazin-7-yl)-2-cyano-5-((((S)-(((S)-1-isopropoxy-1-oxopropan-2-yl)amino)(((isopropoxycarbonyl)oxy)methoxy)phosphoryl)oxy)methyl)tetrahydrofuran-3,4-diyl bis(2-methylpropionate)] | < 5 |
| CC(C)OC(=O)OCO[P@@](=O)(N[C@@H](C)C(=O)OC(C)C)OC[C@H]1O[C@@](C#N)(c2ccc3c(N)ncnn23)[C@H](OC(=O)C(C)(C)C)[C@@H]1OC(=O)C(C)(C)C [Compound 4a, (2R,3R,4R,5R)-2-(4-aminopyrrolo[2,1-f][1,2,4]triazin-7-yl)-2-cyano-5-((((R)-(((S)-1-isopropoxy-1-oxopropan-2-yl)amino)(((isopropoxycarbonyl)oxy)methoxy)phosphoryl)oxy)methyl)tetrahydrofuran-3,4-diyl bis(2,2-dimethylpropionate)] | 50 to 500 |
| CC(C)OC(=O)OCO[P@](=O)(N[C@@H](C)C(=O)OC(C)C)OC[C@H]1O[C@@](C#N)(c2ccc3c(N)ncnn23)[C@H](OC(=O)C(C)(C)C)[C@@H]1OC(=O)C(C)(C)C [Compound 4b, (2R,3R,4R,5R)-2-(4-aminopyrrolo[2,1-f][1,2,4]triazin-7-yl)-2-cyano-5-((((S)-(((S)-1-isopropoxy-1-oxopropan-2-yl)amino)(((isopropoxycarbonyl)oxy)methoxy)phosphoryl)oxy)methyl)tetrahydrofuran-3,4-diyl bis(2,2-dimethylpropionate)] | 50 to 500 |
| CCC(=O)O[C@H]1[C@@H](OC(=O)CC)[C@](C#N)(c2ccc3c(N)ncnn23)O[C@@H]1CO[P@](=O)(N[C@@H](C)C(=O)OCC(CC)CC)OCOC(=O)OC(C)C [Compound 6a, (2R,3R,4R,5R)-2-(4-aminopyrrolo[2,1-f][1,2,4]triazin-7-yl)-2-cyano-5-((((R)-(((S)-1-(2-ethylbutoxy)-1-oxopropan-2-yl)amino)(((isopropoxycarbonyl)oxy)methoxy)phosphoryl)oxy)methyl)tetrahydrofuran-3,4-diyl dipropionate] | 5 to 10 |
| CCC(=O)O[C@H]1[C@@H](OC(=O)CC)[C@](C#N)(c2ccc3c(N)ncnn23)O[C@@H]1CO[P@@](=O)(N[C@@H](C)C(=O)OCC(CC)CC)OCOC(=O)OC(C)C [Compound 6b, (2R,3R,4R,5R)-2-(4-aminopyrrolo[2,1-f][1,2,4]triazin-7-yl)-2-cyano-5-((((S)-(((S)-1-(2-ethylbutoxy)-1-oxopropan-2-yl)amino)(((isopropoxycarbonyl)oxy)methoxy)phosphoryl)oxy)methyl)tetrahydrofuran-3,4-diyl dipropionate] | ≤ 5 |
| CCC(CC)COC(=O)[C@H](C)N[P@](=O)(OCOC(=O)OC(C)C)OC[C@H]1O[C@@](C#N)(c2ccc3c(N)ncnn23)[C@H](OC(=O)C(C)C)[C@@H]1OC(=O)C(C)C [Compound 7a, (2R,3R,4R,5R)-2-(4-aminopyrrolo[2,1-f][1,2,4]triazin-7-yl)-2-cyano-5-((((R)-(((S)-1-(2-ethylbutoxy)-1-oxopropan-2-yl)amino)(((isopropoxycarbonyl)oxy)methoxy)phosphoryl)oxy)methyl)tetrahydrofuran-3,4-diyl bis(2-methylpropionate)] | 10 to 50 |
| CCC(CC)COC(=O)[C@H](C)N[P@@](=O)(OCOC(=O)OC(C)C)OC[C@H]1O[C@@](C#N)(c2ccc3c(N)ncnn23)[C@H](OC(=O)C(C)C)[C@@H]1OC(=O)C(C)C [Compound 7b, (2R,3R,4R,5R)-2-(4-aminopyrrolo[2,1-f][1,2,4]triazin-7-yl)-2-cyano-5-((((S)-(((S)-1-(2-ethylbutoxy)-1-oxopropan-2-yl)amino)(((isopropoxycarbonyl)oxy)methoxy)phosphoryl)oxy)methyl)tetrahydrofuran-3,4-diyl bis(2-methylpropionate)] | 10 to 50 |
| CCC(CC)COC(=O)[C@H](C)N[P@](=O)(OCOC(=O)C(C)(C)C)OC[C@H]1O[C@@](C#N)(c2ccc3c(N)ncnn23)[C@H](OC(C)=O)[C@@H]1OC(C)=O [Compound 9a, (2R,3R,4R,5R)-2-(4-aminopyrrolo[2,1-f][1,2,4]triazin-7-yl)-2-cyano-5-((((R)-(((S)-1-(2-ethylbutoxy)-1-oxopropan-2-yl)amino)((pivaloyloxy)methoxy)phosphoryl)oxy)methyl)tetrahydrofuran-3,4-diyl diacetate] | 5 to 10 |
| CCC(CC)COC(=O)[C@H](C)N[P@@](=O)(OCOC(=O)C(C)(C)C)OC[C@H]1O[C@@](C#N)(c2ccc3c(N)ncnn23)[C@H](OC(C)=O)[C@@H]1OC(C)=O [Compound 9b, (2R,3R,4R,5R)-2-(4-aminopyrrolo[2,1-f][1,2,4]triazin-7-yl)-2-cyano-5-((((S)-(((S)-1-(2-ethylbutoxy)-1-oxopropan-2-yl)amino)((pivaloyloxy)methoxy)phosphoryl)oxy)methyl)tetrahydrofuran-3,4-diyl diacetate] | ≤ 5 |
| CCC(=O)O[C@H]1[C@@H](OC(=O)CC)[C@](C#N)(c2ccc3c(N)ncnn23)O[C@@H]1CO[P@](=O)(N[C@@H](C)C(=O)OCC(CC)CC)OCOC(=O)C(C)(C)C [Compound 10a, (2R,3R,4R,5R)-2-(4-aminopyrrolo[2,1-f][1,2,4]triazin-7-yl)-2-cyano-5-((((R)-(((S)-1-(2-ethylbutoxy)-1-oxopropan-2-yl)amino)((pivaloyloxy)methoxy)phosphoryl)oxy)methyl)tetrahydrofuran-3,4-diyl dipropionate] | 10 to 50 |
| CCC(=O)O[C@H]1[C@@H](OC(=O)CC)[C@](C#N)(c2ccc3c(N)ncnn23)O[C@@H]1CO[P@@](=O)(N[C@@H](C)C(=O)OCC(CC)CC)OCOC(=O)C(C)(C)C [Compound 10b, (2R,3R,4R,5R)-2-(4-aminopyrrolo[2,1-f][1,2,4]triazin-7-yl)-2-cyano-5-((((S)-(((S)-1-(2-ethylbutoxy)-1-oxopropan-2-yl)amino)((pivaloyloxy)methoxy)phosphoryl)oxy)methyl)tetrahydrofuran-3,4-diyl dipropionate] | ≤ 5 |
| CCC(CC)COC(=O)[C@H](C)N[P@](=O)(OCOC(=O)C(C)(C)C)OC[C@H]1O[C@@](C#N)(c2ccc3c(N)ncnn23)[C@H](OC(=O)C(C)C)[C@@H]1OC(=O)C(C)C [Compound 11a, (2R,3R,4R,5R)-2-(4-aminopyrrolo[2,1-f][1,2,4]triazin-7-yl)-2-cyano-5-((((R)-(((S)-1-(2-ethylbutoxy)-1-oxopropan-2-yl)amino)((pivaloyloxy)methoxy)phosphoryl)oxy)methyl)tetrahydrofuran-3,4-diyl bis(2-methylpropionate)] | 10 to 50 |

Source: EP4617278A1, “NUCLEOTIDE ANALOG, AND COMPOSITION AND USE THEREOF” (priority 2022, dated 2024)
